Results from US9062074B2, “(9E)-15-(2-pyrrolidin-1-yl-ethoxy)-7,12,25-trioxa-19,21,24-triaza-tetracyclo[18.3.1.1(2.5).1(14,18)]hexacosa-1(24),2,4,9,14,16,18(26),20,22-nonaene citrate salt” (CTI BioPharma Corp., priority 2009, dated 2015).
Read-outs that look alike come from different tables or passages of the source.

Key:
Assay type in all cases: physicochemical
[1] = Phase stability by XRPD after storage at 40° C. and 75% relative humidity for one week; details: solid form by low resolution XRPD after one week
Description: Condition 2 (Low Resolution)
X-Ray Powder Diffraction patterns were also collected on a Bruker D8 diffractometer using Cu K[…] radiation (40 kV, 40 mA), θ-2θ goniometer, and divergence of V4 and receiving slits, a Ge monochromator and a Lynxeye detector. The instrument is performance checked using a certified Corundum standard (NIST 1976). The software used for data collection was Diffrac Plus XRD Commander v2.5.0 and the data were analysed and presented using Diffrac Plus EVA v 11.0.0.2 or v 13.0.0.2. Samples were run under ambient conditions as flat plate specimens using powder as received. Approximately 15 mg of the sample was gently packed into a cavity cut into polished, zerobackground (510) silicon wafer. The sample was rotated in its own plane during analysis. The details of the data collection are:
The samples which had been prepared for the collection of low resolution XRPD traces were placed in a chamber maintained at 40° C. and 75% relative humidity. After one week the samples were reanalysed by low resolution XRPD (Condition 2), to check for phase changes. It can be seen that no phase change has occurred, and that citrate salts of the invention are stable for at least one week under these conditions.

[2] = Thermogravimetric Analysis (TGA)
Description: Thermogravimetric Analysis (TGA) data were collected on a Mettler TGA/SDTA 851e equipped with a 34 position autosampler. The instrument was temperature calibrated using certified indium. Typically 5-30 mg of each sample was loaded onto a pre-weighed aluminium crucible and was heated at 10° C.min^−1 from ambient temperature to 350° C. A nitrogen purge at 50 ml.min^−1 was maintained over the sample. The instrument control and data analysis software was STARe v9.10.

[3] = Differential Scanning Calorimetry (DSC); details: heated at 10° C.min^−1
Description: Differential Scanning Calorimetry (DSC) data were collected on a Mettler DSC 823e equipped with a 34 position auto-sampler. The instrument was calibrated for energy and temperature using certified indium. Typically 0.5-3 mg of each sample, in a pin-holed aluminium pan, was heated at 10° C.min^−1 from 25° C. to 350° C. A nitrogen purge at 50 ml.min^−1 was maintained over the sample. The instrument control and data analysis software was STARe v9.10.

[4] = Solubility assessment (solvent added in 10 volume aliquots); details: thermodynamic from solid, read-out: Solubility assessment observation
Description: For each solvent investigated, approximately 8 mg of compound 1 was weighed into an 8 ml screw top glass vial. The solvent was added in 10 volume aliquots and the mixture sonicated and warmed (with a hot-air gun) to encourage dissolution. If dissolution was not achieved after the addition of 100 volumes of solvent, a further 100 volumes was added.

C1=C2COC/C=C/COCc3cc(ccc3OCCN3CCCC3)Nc3nccc(n3)C(=C1)O2 [Batch 5]
Phase Stability 1 wk @ 40° C./75% RH [1]: Crystalline Form 1 | Thermogravimetric Analysis weight change ([2]; 160 to 250° C.): −21% w/w 160 to 250 °C | Thermogravimetric Analysis weight change ([2]; ambient to 160° C.): −0.4% w/w ambient to | Differential Scanning Calorimetry complex endotherm onset (significant thermal event) [3]: onset 178 °C | solubility ([4]; IPA, organic solvent or mixture, IPA, 10 vols): < 100 mg/mL | solubility ([4]; IPA, organic solvent or mixture, IPA, 20 vols): < 50 mg/mL | solubility ([4]; IPA, organic solvent or mixture, IPA, 30 vols): < 33.3 mg/mL | solubility ([4]; IPA, organic solvent or mixture, IPA, 40 vols): < 25 mg/mL | solubility ([4]; IPA, organic solvent or mixture, IPA, 60 vols): < 16.7 mg/mL | solubility ([4]; IPA, organic solvent or mixture, IPA, 80 vols): < 12.5 mg/mL | solubility ([4]; IPA, organic solvent or mixture, IPA, 100 vols): < 10 mg/mL | solubility ([4]; IPA, organic solvent or mixture, IPA, 200 vols): < 5 mg/mL | solubility ([4]; MEK, organic solvent or mixture, MEK, 10 vols): < 100 mg/mL | solubility ([4]; MEK, organic solvent or mixture, MEK, 20 vols): < 50 mg/mL | solubility ([4]; MEK, organic solvent or mixture, MEK, 30 vols): < 33.3 mg/mL | solubility ([4]; MEK, organic solvent or mixture, MEK, 40 vols): < 25 mg/mL | solubility ([4]; MEK, organic solvent or mixture, MEK, 50 vols): < 20 mg/mL | solubility ([4]; MEK, organic solvent or mixture, MEK, 60 vols): < 16.7 mg/mL | solubility ([4]; MEK, organic solvent or mixture, MEK, 80 vols): < 12.5 mg/mL | solubility ([4]; MEK, organic solvent or mixture, MEK, 100 vols): < 10 mg/mL | solubility ([4]; MEK, organic solvent or mixture, MEK, 200 vols): < 5 mg/mL | solubility ([4]; THF, organic solvent or mixture, THF, 10 vols): < 100 mg/mL | solubility ([4]; THF, organic solvent or mixture, THF, 20 vols): < 50 mg/mL | solubility ([4]; THF, organic solvent or mixture, THF, 30 vols): < 33.3 mg/mL | solubility ([4]; THF, organic solvent or mixture, THF, 40 vols): < 25 mg/mL | solubility ([4]; THF, organic solvent or mixture, THF, 60 vols): < 16.7 mg/mL | solubility ([4]; THF, organic solvent or mixture, THF, 80 vols): < 12.5 mg/mL | solubility ([4]; THF, organic solvent or mixture, THF, 100 vols): < 10 mg/mL | solubility ([4]; THF, organic solvent or mixture, THF, 200 vols): < 5 mg/mL | solubility ([4]; acetone, organic solvent or mixture, Acetone, 10 vols): < 100 mg/mL | solubility ([4]; acetone, organic solvent or mixture, Acetone, 20 vols): < 50 mg/mL | solubility ([4]; acetone, organic solvent or mixture, Acetone, 40 vols): < 25 mg/mL | solubility ([4]; acetone, organic solvent or mixture, Acetone, 60 vols): < 16.7 mg/mL | solubility ([4]; acetone, organic solvent or mixture, Acetone, 80 vols): < 12.5 mg/mL | solubility ([4]; acetone, organic solvent or mixture, Acetone, 100 vols): < 10 mg/mL | solubility ([4]; acetone, organic solvent or mixture, Acetone, 200 vols): < 5 mg/mL | solubility ([4]; acetonitrile, organic solvent or mixture, Acetonitrile, 10 vols): < 100 mg/mL | solubility ([4]; acetonitrile, organic solvent or mixture, Acetonitrile, 20 vols): < 50 mg/mL | solubility ([4]; acetonitrile, organic solvent or mixture, Acetonitrile, 30 vols): < 33.3 mg/mL | solubility ([4]; acetonitrile, organic solvent or mixture, Acetonitrile, 40 vols): < 25 mg/mL | solubility ([4]; acetonitrile, organic solvent or mixture, Acetonitrile, 60 vols): < 16.7 mg/mL | solubility ([4]; acetonitrile, organic solvent or mixture, Acetonitrile, 80 vols): < 12.5 mg/mL | solubility ([4]; acetonitrile, organic solvent or mixture, Acetonitrile, 100 vols): < 10 mg/mL | solubility ([4]; acetonitrile, organic solvent or mixture, Acetonitrile, 200 vols): < 5 mg/mL | solubility ([4]; ethanol, organic solvent or mixture, Ethanol, 10 vols): < 100 mg/mL | solubility ([4]; ethanol, organic solvent or mixture, Ethanol, 20 vols): < 50 mg/mL | solubility ([4]; ethanol, organic solvent or mixture, Ethanol, 30 vols): < 33.3 mg/mL | solubility ([4]; ethanol, organic solvent or mixture, Ethanol, 40 vols): < 25 mg/mL | solubility ([4]; ethanol, organic solvent or mixture, Ethanol, 60 vols): < 16.7 mg/mL | solubility ([4]; ethanol, organic solvent or mixture, Ethanol, 80 vols): < 12.5 mg/mL | solubility ([4]; ethanol, organic solvent or mixture, Ethanol, 100 vols): < 10 mg/mL | solubility ([4]; ethanol, organic solvent or mixture, Ethanol, 200 vols): < 5 mg/mL | solubility ([4]; water, Water, 10 vols): > 100 mg/mL
